# Where two headings read alike, the source gives them in different places.
# Legend:
# T. brucei brucei STIB795 = assay: In vivo trypanocidal activity, T. brucei brucei STIB795 mouse model; parameters: species or system Trypanosoma brucei brucei; settings: 5.0 mg/kg × 4 days i.p., NMRI mice; for Mean Survival: untreated control 5.25 days
# Description: In vivo efficacy studies in mice were conducted at the Swiss Tropical and Public Health Institute (Basel) (License number 2813) according to the rules and regulations for the protection of animal rights (“Tierschutzverordnung”) of the Swiss “Bundesamt für Veterinärwesen”. They were approved by the veterinary office of Canton Basel-Stadt, Switzerland. Groups of four female NMRI mice weighing 20 to 25 g were infected i.p. on Day 0 (d0) with 10^5 bloodstream forms of T. brucei brucei STIB 795, which is a derivative of strain 427. Compounds were formulated in 100% DMSO diluted 10-fold in distilled water. Mice were treated on four consecutive days (d3 to d6 post-infection) with the Origanum onites oil, as well as carvacrol and thymol, at 100 mg/kg by the i.p. route. One group served as untreated controls, and two other groups were treated with the standard drugs pentamidine (5 mg/kg for 4 days) and melarsoprol (2 mg/kg for 4 days), respectively. The levels of parasitemia of the mice were checked by microscopic examination of tail blood on Day 7 and thereafter twice a week until Day 30 post infection. Mice were considered cured when there was no parasitaemia relapse detected in the tail blood over the 30 day observation period. The day of relapse and surviving days were recorded.
# [1] = system: L. donovani (strain MHOM/ET/67/L82) amastigotes; assay: In vitro assay for Leishmania donovani axenic amastigotes (resazurin); assay type: cell-based; settings: axenic amastigotes, 72 h, means of two determinations ± deviation, read-out: IC50 Leishmania donovani
# Description: Amastigotes of L. donovani (strain MHOM/ET/67/L82) were grown in axenic culture at 37 °C in SM medium at pH 5.4 supplemented with 10% heat-inactivated FBS under an atmosphere of 5% CO2. Culture medium (100 μL) with 10^5 amastigotes from axenic culture with or without a serial drug dilution was seeded in 96 well microtiter plates. Serial drug was prepared covering a range of dilutions from 90 to 0.123 μg/mL. After 72 h of incubation, the plates were inspected under an inverted microscope to assure growth of the controls and sterile conditions. Subsequently, 10 μL resazurin solution (12.5 mg resazurin dissolved in 100 mL double-distilled water) was added to each well and the plates were incubated for another 2 h. The plates were then read with a Spectramax Gemini XS microplate fluorometer (Molecular Devices Cooperation, Sunnyvale, CA, USA) using an excitation wavelength of 536 nm and an emission wavelength of 588 nm. Data were analyzed using the software Softmax Pro (Molecular Devices Cooperation, Sunnyvale, CA, USA). A decrease of fluorescence (=inhibition) was expressed as percentage of the fluorescence of control cultures and plotted against the drug concentrations. From the sigmoidal inhibition curves, the IC50 values were calculated. Miltefosine was used as a reference drug.
# [2] = system: Trypanosoma brucei rhodesiense STIB 900; assay: In vitro assay for Trypanosoma brucei rhodesiense (resazurin); assay type: cell-based
# Description: Trypanosoma brucei rhodesiense STIB 900 strain, isolated in 1982 from a human patient in Tanzania and, after several mouse passages, cloned and adapted to axenic culture conditions, was used in this assay. Minimum essential medium (50 μL) supplemented with 25 mM HEPES, 1 g/L additional glucose, 1% MEM non-essential amino acids (100×), 0.2 mM 2-mercaptoethanol, 1 mM Na-pyruvate, and 15% heat inactivated horse serum was added to each well of a 96 well microtiter plate. Serial drug dilutions of seven 3-fold dilution steps covering a range from 90 to 0.123 μg/mL were prepared, and then 4 × 10^4 blood stream forms of T. b. rhodesiense STIB 900 in 50 μL were added to each well and the plate was incubated at 37 °C under a 5% CO2 atmosphere for 72 h. Resazurin solution (resazurin, 12.5 mg in 100 mL double-distilled water) (10 μL) was then added to each well and incubated for a further 2–4 h. At the end of the assay, the plates were read with a Spectramax Gemini XS microplate fluorometer (Molecular Devices Cooperation, Sunnyvale, CA, USA) using an excitation wavelength of 536 nm and an emission wavelength of 588 nm. Data were analyzed using the microplate reader software Softmax Pro (Molecular Devices Cooperation, Sunnyvale, CA, USA). Melarsoprol was used as standard drug.
# [3] = In vitro assay for cytotoxicity on mammalian cells (resazurin); assay type: cell-based, rat
# Description: (§1) Assays were performed in 96 well microtiter plates (4 × 10^4 L6 cells/well), each well containing 100 μL of RPMI 1640 medium supplemented with 1% L-glutamine (200 mM) and 10% FBS. L6 cells are a primary cell line derived from rat skeletal myoblasts. Serial drug dilutions of seven 3-fold dilution steps covering a range from 90 to 0.123 μg/mL were prepared. After 72 h of incubation, the plates were inspected under an inverted microscope to assure growth of the controls and sterile conditions. Resazurin solution (10 μL) (12.5 mg resazurin in 100 mL double-distilled water) was then added to each well and the plates incubated for another 2 h. The plates were then read with a Spectramax Gemini XS microplate fluorometer (Molecular Devices Cooperation, Sunnyvale, CA, USA) using an excitation wavelength of 536 nm and an emission wavelength of 588 nm. Data were analyzed using the microplate reader software Softmax Pro (Molecular Devices Cooperation, Sunnyvale, CA, USA). From the sigmoidal inhibition curves, the IC50 values were calculated. Podophyllotoxin was the positive control.
# [4] = system: T. cruzi Tulahuen strain C2C4; assay: In vitro assay for Trypanosoma cruzi in L-6 cells (β-galactosidase/CPRG); assay type: cell-based; settings: Trypanosoma cruzi, L6; Tulahuen C2C4 in L-6 cells, 96 h; highest concentration tested 90 μg/mL; means of two determinations ± deviation
# Description: Rat skeletal myoblasts (L-6 cells) were seeded in 96 well microtiter plates (2000 cells/well) in 100 μL RPMI 1640 medium with 10% FBS and 2 mM L-glutamine for 24 h. After that, the medium was removed and replaced by 100 μL per well containing 5000 trypomastigote forms of T. cruzi Tulahuen strain C2C4, containing the β-galactosidase (Lac Z) gene. The medium was removed from the wells after 48 h, and replaced with 100 μL fresh medium with or without a serial drug dilution of seven 3-fold dilution steps covering a range from 90 to 0.123 μg/mL. After 96 h of incubation, the plates were inspected under an inverted microscope to assure growth of the controls and sterility, after which the substrate CPRG/Nonidet ([…]) was added to all wells. A color reaction developed within 2–6 h and could be read photometrically at 540 nm. Data were transferred into the graphic program Softmax Pro (Molecular Devices Cooperation, Sunnyvale, CA, USA) and the IC50 values were calculated from the sigmoidal dose response curves. Benznidazole was the reference drug.
# P. falciparum K1 strain = assay: In vitro assay for Plasmodium falciparum ([3H]-hypoxanthine incorporation); assay type: cell-based
# Description: Activity against the erythrocytic stages of P. falciparum was determined using an in vitro modified [^3H]-hypoxanthine incorporation assay, using the chloroquine- and pyrimethamine-resistant K1 strain [68]. Compounds were dissolved in DMSO at 10 mg/mL and further diluted in medium before added to parasite cultures incubated in RPMI 1640 medium without hypoxanthine, supplemented with HEPES (5.94 g/l), NaHCO3 (2.1 g/L), neomycin (100 U/mL), AlbumaxR (5 g/L), and washed human red cells A+ at 2.5% haematocrit (0.3% parasitaemia). Serial drug dilutions of seven 3-fold dilution steps covering a range from 90 to 0.123 μg/mL were prepared. The 96 well plates were incubated in a humidified atmosphere at 37 °C; 4% CO2, 3% O2, 93% N2. After 48 h 50 μL of ^3H-hypoxanthine (=0.5 μCi) was added to each well of the plate. The plates were incubated for a further 24 h under the same conditions. The plates were then harvested with a Betaplate™ cell harvester (Wallac, Zurich, Switzerland), and the red blood cells transferred onto a glass fiber filter then washed with distilled water. The dried filters were inserted into a plastic foil with 10 mL of scintillation fluid, and counted in a Betaplate™ liquid scintillation counter (Wallac, Zurich, Switzerland). […] IC50 values were calculated from the sigmoidal inhibition curves using Microsoft Excel. Chloroquine was used as positive control drug.
# Leishmania = system: Leishmania; parameters: method as in PMID 15793164; settings: oral administration in mice for 30 days; cited from earlier work
# L6 cells = assay: In vitro assay for cytotoxicity on mammalian cells (resazurin); assay type: cell-based, rat; settings: rat
# Description: as §1
# [5] = system: T. brucei bloodstream forms; parameters: method as in PMID 10865458; settings: cited from earlier work
# T. cruzi amastigotes = system: T. cruzi amastigotes; parameters: method as in doi:10.1080/10412905.2013.820669; settings: cited from earlier work
# T. cruzi epimastigotes = system: T. cruzi epimastigotes; parameters: method as in doi:10.1080/10412905.2013.820669; settings: cited from earlier work
# T. b. brucei = system: T. b. brucei; parameters: method as in PMID 29778466; settings: blood stream trypomastigotes cultures; AnTart 1 strain, wild type; cited from earlier work
# [6] = Trypanosoma brucei, 72 h, STIB 900 blood stream forms, 72 h; means of two independent determinations ± deviation from the mean; read-out: IC50 Trypanosoma brucei rhodesiense
# [7] = L6 cells (rat skeletal myoblasts), rat skeletal myoblasts, 72 h, means of two determinations ± deviation, read-out: IC50 Cytotoxicity L6 cells
# [8] = K1 strain (chloroquine- and pyrimethamine-resistant), erythrocytic stages, means of two determinations ± deviation, read-out: IC50 Plasmodium falciparum
# [9] = rat skeletal myoblasts, 72 h, means of two determinations ± deviation, read-out: IC50 Cytotoxicity L6 cells
Compound,IC50 [1],"IC50 [2, 6]","IC50 at 72 h [3, 7]",IC50 [4],IC50 (P. falciparum K1 strain; [8]),also measured
"N=C(N)c1ccc(OCCCCCOc2ccc(C(=N)N)cc2)cc1 [Pentamidine, reference compound]",,,,,,Cured/Infected (T. brucei brucei STIB795): 4/4; Mean Survival (T. brucei brucei STIB795): >30 days; Mean Survival (T. brucei brucei STIB795; listed as pentamidine): over 30 days
CC1(C)C2CCC1(C)C(O)C2 (stereo not drawn) [Borneol],52.1 ± 16.6 µg/mL,24.3 ± 11.8 µg/mL,> 90 µg/mL,> 90 µg/mL,> 20 µg/mL,
CNC[C@H](O)[C@@H](O)[C@H](O)[C@H](O)CO.[O]=[Sb](=[O])[OH] [glucantime],,,,,,reduction of the parasite burden (Leishmania): 100%
C=C1CC/C=C(\C)CC[C@@H]2[C@@H]1CC2(C)C [β-Caryophyllene],52.4 ± 17.4 µg/mL,28.9 ± 11.8 µg/mL,62.2 ± 7 µg/mL,50.1 ± 12.5 µg/mL,12.8 µg/mL,
COc1cc(C(C)C)ccc1C [Carvacrol Methyl Ether],17.5 ± 1.7 µg/mL,17 ± 22 µg/mL,,> 90 µg/mL,> 20 µg/mL,IC50 at 72 h ([3]; rat): > 90 µg/mL
C=CC(=C)CCC=C(C)C [Myrcene],48.2 ± 12.7 µg/mL,22 ± 14.8 µg/mL,> 90 µg/mL,> 90 µg/mL,> 20 µg/mL,
C=C[C@](C)(O)CCC=C(C)C [L-Linalool],86.3 ± 2.8 µg/mL,3.6 ± 2.5 µg/mL,,> 90 µg/mL,> 20 µg/mL,IC50 at 72 h ([3]; rat): > 90 µg/mL
"COc1cc([C@@H]2c3cc4c(cc3[C@H](O)[C@H]3COC(=O)[C@H]23)OCO4)cc(OC)c1OC [phodophyllotoxin, reference compound]",,,,,,"IC50 at 72 h [3, 9]: 0.004 µg/mL"
"Nc1nc(N)nc(Nc2ccc([As]3SCC(CO)S3)cc2)n1 (stereo not drawn) [melarsoprol, reference compound]",,,,,,"IC50 ([2]; Trypanosoma brucei, 72 h, read-out: IC50 Trypanosoma brucei rhodesiense): 0.003 µg/mL"
CC1=CC(=O)C(C(C)C)=CC1=O [Thymoquinone],1.7 ± 0.16 µg/mL,0.11 ± 0.02 µg/mL,20.5 ± 8.1 µg/mL,18.2 ± 4.3 µg/mL,2.6 ± 0.16 µg/mL,fold higher cytotoxicity on L6 cells than thymol (L6 cells): 2.5 fold
"CCCCCCCCCCCCCCCCOP(=O)([O-])OCC[N+](C)(C)C [miltefosine, reference compound]",0.2 µg/mL,,,,,
COc1cc(C)ccc1C(C)C [Thymol Methyl Ether],86 ± 1.9 µg/mL,4.1 ± 1.97 µg/mL,,> 90 µg/mL,> 20 µg/mL,IC50 at 72 h ([3]; rat): > 90 µg/mL
CC1=CCC(O)(C(C)C)CC1 (stereo not drawn) [Terpinen-4-ol],68.7 ± 14.2 µg/mL,0.66 ± 0.4 µg/mL,43.3 ± 16.5 µg/mL,46.8 ± 7.4 µg/mL,> 20 µg/mL,ED50 T. brucei bloodstream forms [5]: 0.02 µg/mL; selectivity to the parasite than to the human cell line [5]: 1000 fold
CC1=CCC2CC1C2(C)C (stereo not drawn) [α-Pinene],81.9 ± 9 µg/mL,0.42 ± 0.24 µg/mL,87.8 ± 3 µg/mL,> 90 µg/mL,10.7 ± 1.2 µg/mL,IC50 T. cruzi amastigotes (T. cruzi amastigotes): 1.92 µg/mL; IC50 T. cruzi epimastigotes (T. cruzi epimastigotes): 2.74 µg/mL; IC50 T. b. brucei (T. b. brucei): 2.9 µg/mL
Cc1ccc(C(C)C)cc1 [p-Cymene],> 90 µg/mL,45 ± 27 µg/mL,> 90 µg/mL,> 90 µg/mL,> 20 µg/mL,
CC1=CCC(C(C)C)=CC1 [γ-Terpinene],> 90 µg/mL,,,> 90 µg/mL,> 20 µg/mL,"IC50 ([2]; Trypanosoma brucei; STIB 900 blood stream forms, 72 h; means of two independent determinations ± deviation from the mean; read-out: IC50 Trypanosoma brucei rhodesiense): 32.9 ± 26 µg/mL; IC50 [3, 9]: > 90 µg/mL"
CC1=CC[C@@H](C(C)(C)O)CC1 [α-Terpineol],75.9 ± 4.7 µg/mL,0.56 ± 0.4 µg/mL,,61 ± 2.1 µg/mL,> 20 µg/mL,"IC50 [3, 9]: 32.3 ± 0.1 µg/mL"
"CCN(CC)CCCC(C)Nc1ccnc2cc(Cl)ccc12 (stereo not drawn) [chloroquine, reference compound]",,,,,,"IC50 (P. falciparum K1 strain; K1, read-out: IC50 Plasmodium falciparum): 0.056 µg/mL"
"O=C(Cn1ccnc1[N+](=O)[O-])NCc1ccccc1 [benznidazole, reference compound]",,,,0.44 µg/mL,,

# Reference: PMC6930659, “Antiprotozoal Activity of Turkish Origanum onites Essential Oil and Its Components” (Molecules, 2019)
